Measurements: patent US20030109563A1, “Nematicidal trifluorobutenes” (priority 2000, published 2003)

System: Meloidogyne incognita
Test: Test against Meloidogyne spp. (soil pot test)
Format: in vivo
Conditions: 672 h; 10 ppm in soil contaminated by Meloidogyne incognita; tomato (Kurihara), greenhouse 4 weeks; from root knot index; read-out: controlling effect
Procedure: Test Against Meloidogyne spp. (Soil Pot Test)
Preparation of Test Agent:
1 Part of the active compound is impregnated to 99 parts of pumice to make fine granules.
A compound of the formula (I) was added to the soil contaminated by Meloidogyne incognita so that the chemical concentration would be 10 ppm and homogeneously mixed by stirring. A pot ( 1/5000 are) was filled with the soil. About 20 seeds of tomato (variety: Kurihara) were sown per pot. After cultivation in a greenhouse for 4 weeks, they were carefully pulled out not to damage the roots and the root knot index and the controlling effect were determined as follows.
1: A few knots were formed
2: Knots were formed to a medium extent
3: Knots were formed to an intense extent
4: Knots were formed to the most intense extent (corresponds to non-treatment). [formula]
Evaluation of the ability of the tested compounds to control the nematodes was done according to the values obtained for the controlling effect and with the following standards. […]
a: Controlling effect 100-71% b: Controlling effect 70-50% c: Controlling effect less than 50%

Row | SMILES | pest or weed control at 10 ppm [%]
1 | FC(F)=C(F)CCSc1ncco1 [Compound 1, 2-(3,4,4-trifluoro-3-butenylthio)oxazole] | 71 to 100
2 | [O-][S+](CCC(F)=C(F)F)c1ncco1 (centres unmarked) [Compound 2, 2-(3,4,4-trifluoro-3-butenylsulfinyl)oxazole] | 71 to 100
3 | O=S(=O)(CCC(F)=C(F)F)c1ncco1 [Compound 3, 2-(3,4,4-trifluoro-3-butenylsulfonyl)oxazole] | 71 to 100
4 | FC(F)=C(F)CCSc1ncc(Cl)o1 [Compound 4, 5-chloro-2-(3,4,4-trifluoro-3-butenylthio)oxazole] | 71 to 100
5 | FC(F)=C(F)CCSc1nc(CBr)c(Br)o1 [Compound 39, 5-bromo-4-bromomethyl-2-(3,4,4-trifluoro-3-butenylthio)oxazole] | 71 to 100
6 | COCc1cnc(SCCC(F)=C(F)F)o1 [Compound 46, 5-methoxymethyl-2-(3,4,4-trifluoro-3-butenylthio)oxazole] | 71 to 100
7 | FC(F)=C(F)CCSc1nc(Cl)co1 [Compound 52, 4-chloro-2-(3,4,4-trifluoro-3-butenylthio)oxazole] | 71 to 100
8 | OCc1coc(SCCC(F)=C(F)F)n1 [Compound 75, 4-hydroxymethyl-2-(3,4,4-trifluoro-3-butenylthio)oxazole] | 71 to 100
9 | COCc1coc(SCCC(F)=C(F)F)n1 [Compound 78, 4-methoxymethyl-2-(3,4,4-trifluoro-3-butenylthio)oxazole] | 71 to 100
10 | CSCc1coc(SCCC(F)=C(F)F)n1 [Compound 86, 4-methylthiomethyl-2-(3,4,4-trifluoro-3-butenylthio)oxazole] | 71 to 100
11 | CS(=O)(=O)Oc1coc(SCCC(F)=C(F)F)n1 [Compound 127, 4-methylsulfonyloxy-2-(3,4,4-trifluoro-3-butenylthio)oxazole] | 71 to 100
